Source: patent US12612360B2 (Sanofi, priority 2020, dated 2026)

Target: T1, ERα (Homo sapiens, UniProt P03372)
T1 construct: host or cells: MCF7
T1 sequence (P03372 1-595): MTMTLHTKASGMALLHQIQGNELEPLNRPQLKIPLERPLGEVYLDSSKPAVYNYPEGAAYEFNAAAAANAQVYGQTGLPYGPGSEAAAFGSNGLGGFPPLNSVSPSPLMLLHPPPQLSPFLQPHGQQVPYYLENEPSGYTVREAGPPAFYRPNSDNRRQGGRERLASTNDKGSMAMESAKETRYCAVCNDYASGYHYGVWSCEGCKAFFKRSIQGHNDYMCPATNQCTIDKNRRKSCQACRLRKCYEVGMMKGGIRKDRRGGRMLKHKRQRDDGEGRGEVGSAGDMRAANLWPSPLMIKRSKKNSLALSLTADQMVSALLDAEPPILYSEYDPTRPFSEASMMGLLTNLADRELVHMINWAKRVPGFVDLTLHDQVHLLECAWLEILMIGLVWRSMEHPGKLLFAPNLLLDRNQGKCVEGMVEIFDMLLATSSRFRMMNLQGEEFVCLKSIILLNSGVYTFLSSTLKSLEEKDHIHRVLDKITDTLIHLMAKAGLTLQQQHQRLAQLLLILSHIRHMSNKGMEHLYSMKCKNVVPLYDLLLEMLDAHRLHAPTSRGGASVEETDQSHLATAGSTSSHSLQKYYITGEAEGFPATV
Assay: Estrogen receptor degradation activity: breast cancer cell ERα in cell western assay (MCF7 cells)
Type: cell-based
Conditions: for % Degradation At 0.3 μM: 4 hours, relative to fulvestrant 0.1 μM positive control; for DC50: 4 hours post compound addition, concentration which degrades 50% of the estrogen receptor, read-out: Degradation IC50
Procedure: Test: Estrogen Receptor Degradation Activity Said test involves measuring the in vitro degradation activity of the compounds of the Table 1a. The measurements of the degradation activities were made using a breast cancer cell ERα in cell western assay as described hereunder. MCF7 cells (ATCC) were seeded in 384 wells microplate (collagen coated) at a concentration of 10000 cells/30 μL per well in red phenol free MEM alpha medium (invitrogen) containing 5% charcoal dextran striped FBS. The following day, 9 points serial 1:5 dilution of each compound was added to the cells in 2.5 μL at final concentrations ranging from […] (in table 2), or 0.1 μM for fulvestrant (using as positive control). At 4 hours post compound addition the cells were fixed by adding 25 μL of formalin (final concentration 5% formalin containing 0.1% triton) for 10 minutes at room temperature and then washed twice with PBS. Then, 50 μL of LI-COR blocking buffer containing 0.1% Triton was added to plate for 30 minutes at room temperature. LI-COR blocking buffer was removed and cells were incubated overnight at cold room with 50 μL anti-ER rabbit monoclonal antibody (Thermo scientific MA1-39540) diluted at 1:1000 in LI-COR blocking buffer containing 0.1% tween-20. Wells which were treated with blocking buffer but no antibody were used as background control. Wells were washed twice with PBS (0.1% tween-20) and incubated at 37° C. for 60 minutes in LI-COR (0.1% tween-20) containing goat anti-rabbit antibody Alexa 488 (1:1000) and Syto-64 a DNA dye (2 μM final concentration). Cells were then washed 3 times in PBS and scanned in ACUMEN explorer (TTP-Labtech). Integrated intensities in the green fluorescence and red fluorescence were measured to determine the levels of ERα and DNA respectively. The degradation activity with respect to estrogen receptors in this test is given by the concentration which degrades 50% of the estrogen receptor (or IC50) in nM. […] DMSO−fulvestrant)).

| Compound | % Degradation At 0.3 μM [%] | DC50 [nM] |
| --- | --- | --- |
| O=C(O)c1ccc2c(c1)CCCC(c1ccc(Cl)cc1Cl)=C2c1ccc(C=C2CN(CCC(F)(F)F)C2)cc1 [Example 109, 8-(2,4-dichlorophenyl)-9-(4-((1-(3,3,3-trifluoropropyl)azetidin-3-ylidene)methyl)phenyl)-6,7-dihydro-5H-benzo[7]annulene-3-carboxylic acid] | 91 | 1.4 |
| O=C(O)c1ccc2c(c1)CCCC(c1cc(F)cc(C(F)(F)F)c1)=C2c1ccc(C=C2CN(CCCF)C2)cc1 [Example 155, 8-(3-fluoro-5-(trifluoromethyl)phenyl)-9-(4-((1-(3-fluoropropyl)azetidin-3-ylidene)methyl)phenyl)-6,7-dihydro-5H-benzo[7]annulene-3-carboxylic acid] | 91 | 0.3 |
| O=C(O)c1ccc2c(c1)CCCC(c1ccc(F)cc1F)=C2c1ccc(C=C2CN(CCCF)C2)c(F)c1F [Example 43, 9-(2,3-difluoro-4-((1-(3-fluoropropyl)azetidin-3-ylidene)methyl)phenyl)-8-(2,4-difluorophenyl)-6,7-dihydro-5H-benzo[7]annulene-3-carboxylic acid] | 92 | 0.4 |
| Cc1cc(F)ccc1C1=C(c2c(C)cc(C=C3CN(CCCF)C3)cc2F)c2ccc(C(=O)O)cc2CCC1.Cl [Example 62, 8-(4-fluoro-2-methylphenyl)-9-(2-fluoro-4-((1-(3-fluoropropyl)azetidin-3-ylidene)methyl)-6-methylphenyl)-6,7-dihydro-5H-benzo[7]annulene-3-carboxylic acid hydrochloride] | 99 | 0.5 |
| Cc1cc(C2=C(c3ccc(F)cc3F)CCCc3cc(C(=O)O)ccc32)cc(F)c1C=C1CN(CCCF)C1 [Example 27, 8-(2,4-difluorophenyl)-9-(3-fluoro-4-((1-(3-fluoropropyl)azetidin-3-ylidene)methyl)-5-methylphenyl)-6,7-dihydro-5H-benzo[7]annulene-3-carboxylic acid] | 92 | 0.9 |
| Cc1c(C2=C(c3ccc(C=C4CN(CCC(F)F)C4)cc3)c3ccc(C(=O)O)cc3CCC2)ccc(Cl)c1F [Example 127, 8-(4-chloro-3-fluoro-2-methylphenyl)-9-(4-((1-(3,3-difluoropropyl)azetidin-3-ylidene)methyl)phenyl)-6,7-dihydro-5H-benzo[7]annulene-3-carboxylic acid] | 93 | 0.6 |
| O=C(O)c1ccc2c(c1)CCCC(Cc1ccccc1)=C2c1ccc(C=C2CN(CCCF)C2)cc1 [Example 167, 8-benzyl-9-(4-((1-(3-fluoropropyl)azetidin-3-ylidene)methyl)phenyl)-6,7-dihydro-acid] | 89 | 1.1 |
| O=C(O)c1ccc2c(c1)CCCC(c1ccc(Cl)cc1Cl)=C2c1c(F)cc(C=C2CN(CCCF)C2)cc1F [Example 73, 8-(2,4-dichlorophenyl)-9-(2,6-difluoro-4-((1-(3-fluoropropyl)azetidin-3-ylidene)methyl)phenyl)-6,7-dihydro-5H-benzo[7]annulene-3-carboxylic acid] | 98 | 0.3 |
| O=C(O)c1ccc2c(c1)CCCC(c1ncc(Cl)cc1C(F)(F)F)=C2c1ccc(C=C2CN(CCC(F)F)C2)cc1 [Example 125, 8-(5-chloro-3-(trifluoromethyl)pyridin-2-yl)-9-(4-((1-(3,3-difluoropropyl)azetidin-3-ylidene)methyl)phenyl)-6,7-dihydro-5H-benzo[7]annulene-3-carboxylic acid] | 91 | 0.7 |
| Cc1cc(C2=C(c3ccc(Cl)cc3Cl)CCCc3cc(C(=O)O)ccc32)cc(F)c1C=C1CN(CCCF)C1.Cl [Example 71, 8-(2,4-dichlorophenyl)-9-(3-fluoro-4-((1-(3-fluoropropyl)azetidin-3-ylidene)methyl)-5-methylphenyl)-6,7-dihydro-5H-benzo[7]annulene-3-carboxylic acid hydrochloride] | 101 | 0.2 |
| O=C(O)c1ccc2c(c1)CCCC(C1CC3CCC(C3)C1)=C2c1ccc(C=C2CN(CCCF)C2)cc1 (centres unmarked) [Example 178, 8-(bicyclo[3.2.1]octan-3-yl)-9-(4-((1-(3-fluoropropyl)azetidin-3-ylidene)methyl)phenyl)-6,7-dihydro-5H-benzo[7]annulene-3-carboxylic acid] | 95 | 1.4 |
| O=C(O)c1ccc2c(c1)CCCC(c1ccc(Cl)cc1C(F)(F)F)=C2c1ccc(C=C2CN(CCCF)C2)cc1 [Example 37, 8-(4-chloro-2-(trifluoromethyl)phenyl)-9-(4-((1-(3-fluoropropyl)azetidin-3-ylidene)methyl)phenyl)-6,7-dihydro-5H-benzo[7]annulene-3-carboxylic acid] | 87 | 0.4 |
| O=C(O)c1ccc2c(c1)CCCC(c1cccc(F)c1C(F)(F)F)=C2c1ccc(C=C2CN(CCCF)C2)cc1 [Example 24, 8-(3-fluoro-2-(trifluoromethyl)phenyl)-9-(4-((1-(3-fluoropropyl)azetidin-3-ylidene)methyl)phenyl)-6,7-dihydro-5H-benzo[7]annulene-3-carboxylic acid] | 95 | 0.2 |
| CC1(C)CCCC(C2=C(c3ncc(C=C4CN(CCCF)C4)cc3F)c3ccc(C(=O)O)cc3CCC2)C1 (racemic) [Example 186, 8-(3,3-Dimethylcyclohexyl)-9-(3-fluoro-5-((1-(3-fluoropropyl)azetidin-3-ylidene)methyl)pyridin-2-yl)-6,7-dihydro-5H-benzo[7]annulene-3-carboxylic acid, racemic mixture] | 92 | 1 |
| O=C(O)c1ccc2c(c1)CCCC(c1ccc(C3CC3)cc1C(F)(F)F)=C2c1ccc(C=C2CN(CCCF)C2)cc1 [Example 141, 8-(4-cyclopropyl-2-(trifluoromethyl)phenyl)-9-(4-((1-(3-fluoropropyl)azetidin-3-ylidene)methyl)phenyl)-6,7-dihydro-5H-benzo[7]annulene-3-carboxylic acid] | 88 | 0.4 |
| O=C(O)c1ccc2c(c1)CCCC(c1ccc(C(F)(F)F)cc1Cl)=C2c1ccc(C=C2CN(CCCF)C2)cc1 [Example 50, 8-(2-chloro-4-(trifluoromethyl)phenyl)-9-(4-((1-(3-fluoropropyl)azetidin-3-ylidene)methyl)phenyl)-6,7-dihydro-5H-benzo[7]annulene-3-carboxylic acid] | 93 | 0.1 |
| O=C(O)c1ccc2c(c1)CCCC(c1ccc(C(F)(F)F)cc1C(F)(F)F)=C2c1ccc(C=C2CN(CCCF)C2)cc1 [Example 16, 8-(2,4-bis(trifluoromethyl)phenyl)-9-(4-((1-(3-fluoropropyl)azetidin-3-ylidene)methyl)phenyl)-6,7-dihydro-5H-benzo[7]annulene-3-carboxylic acid] | 93 | 0.4 |
| CCOc1ccc(C2=C(c3ccc(C=C4CN(CCCF)C4)cc3)c3ccc(C(=O)O)cc3CCC2)cc1C(F)(F)F [Example 149, 8-(4-ethoxy-3-(trifluoromethyl)phenyl)-9-(4-((1-(3-fluoropropyl)azetidin-3-ylidene)methyl)phenyl)-6,7-dihydro-5H-benzo[7]annulene-3-carboxylic acid] | 87 | 0.4 |
| Cc1c(C2=C(c3ccc(Cl)cc3Cl)CCCc3cc(C(=O)O)ccc32)ccc(C=C2CN(CCCF)C2)c1F [Example 63, 8-(2,4-dichlorophenyl)-9-(3-fluoro-4-((1-(3-fluoropropyl)azetidin-3-ylidene)methyl)-2-methylphenyl)-6,7-dihydro-5H-benzo[7]annulene-3-carboxylic acid] | 90 | 0.7 |
